Data as given in PubChem BioAssay AID1918942 (Molecular Pharmacology Branch, DTP, NCI, 2023).

System: 743489-274-T-PDC complex spheroid viability
Test: Anticancer human tumor 743489-274-T-PDC patient-derived renal cell carcinoma cell line growth inhibition
Details: for IC50: curve of first compound; for viability, T/C: stronger effect = lower value
In short: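 Drug combinations with the LSD1 inhibitor iadademstat tested on tumor cells co-cultured as spheroids with endothelial cells and mesenchymal stem cells. Concentrations descended in half-log increments from clinical Cmax or 10 microM.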

[1] = second compound 0.1 µM, first compound 0.0316 µM
[2] = second compound 0.1 µM, first compound 0.1 µM
[3] = second compound 0.1 µM, first compound 0.316 µM
[4] = second compound 0.1 µM, first compound 1 µM
[5] = second compound 0.1 µM, first compound 3.16 µM
[6] = second compound 0.1 µM, first compound 10 µM
[7] = second compound 0.316 µM, first compound 0.0316 µM
[8] = second compound 0.316 µM, first compound 0.1 µM
[9] = second compound 0.316 µM, first compound 0.316 µM
[10] = second compound 0.316 µM, first compound 1 µM
[11] = second compound 0.316 µM, first compound 3.16 µM
[12] = second compound 0.316 µM, first compound 10 µM
[13] = second compound 1 µM, first compound 0.0316 µM
[14] = second compound 1 µM, first compound 0.1 µM
[15] = second compound 1 µM, first compound 0.316 µM
[16] = second compound 1 µM, first compound 1 µM
[17] = second compound 1 µM, first compound 3.16 µM
[18] = second compound 1 µM, first compound 10 µM
[19] = second compound 3.16 µM, first compound 0.0316 µM
[20] = second compound 3.16 µM, first compound 0.1 µM
[21] = second compound 3.16 µM, first compound 0.316 µM
[22] = second compound 3.16 µM, first compound 1 µM
[23] = second compound 3.16 µM, first compound 3.16 µM
[24] = second compound 3.16 µM, first compound 10 µM
[25] = second compound 10 µM, first compound 0.0316 µM
[26] = second compound 10 µM, first compound 0.1 µM
[27] = second compound 10 µM, first compound 0.316 µM
[28] = second compound 10 µM, first compound 1 µM
[29] = second compound 10 µM, first compound 3.16 µM
[30] = second compound 10 µM, first compound 10 µM
[31] = second compound 0.1 µM, first compound 0.00949 µM
[32] = second compound 0.1 µM, first compound 0.03 µM
[33] = second compound 0.1 µM, first compound 0.0949 µM
[34] = second compound 0.1 µM, first compound 0.3 µM
[35] = second compound 0.316 µM, first compound 0.00949 µM
[36] = second compound 0.316 µM, first compound 0.03 µM
[37] = second compound 0.316 µM, first compound 0.0949 µM
[38] = second compound 0.316 µM, first compound 0.3 µM
[39] = second compound 1 µM, first compound 0.00949 µM
[40] = second compound 1 µM, first compound 0.03 µM
[41] = second compound 1 µM, first compound 0.0949 µM
[42] = second compound 1 µM, first compound 0.3 µM
[43] = second compound 3.16 µM, first compound 0.00949 µM
[44] = second compound 3.16 µM, first compound 0.03 µM
[45] = second compound 3.16 µM, first compound 0.0949 µM
[46] = second compound 3.16 µM, first compound 0.3 µM
[47] = second compound 10 µM, first compound 0.00949 µM
[48] = second compound 10 µM, first compound 0.03 µM
[49] = second compound 10 µM, first compound 0.0949 µM
[50] = second compound 10 µM, first compound 0.3 µM
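Further: spheroids exposed to compounds for 7 days before readout.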
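Wherever viability, T/C is given: 100% = DMSO vehicle control wells.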

## CC1(C)CCC(CN2CCN(c3ccc(C(=O)NS(=O)(=O)c4ccc(NCC5CCOCC5)c([N+](=O)[O-])c4)c(Oc4cnc5[nH]ccc5c4)c3)CC2)=C(c2ccc(Cl)cc2)C1 + NC1CC1c1ccc(-c2cccc(O)c2)cc1
Second compound 0.1 µM
  IC50: > 10 µM
Second compound 0.316 µM
  IC50: > 10 µM
Second compound 1 µM
  IC50: > 10 µM
Second compound 3.16 µM
  IC50: > 10 µM
Second compound 10 µM
  IC50: > 10 µM
[1]
  viability, T/C: 90.8%
[2]
  viability, T/C: 119%
[3]
  viability, T/C: 106%
[4]
  viability, T/C: 110%
[5]
  viability, T/C: 122%
[6]
  viability, T/C: 117%
[7]
  viability, T/C: 107%
[8]
  viability, T/C: 120%
[9]
  viability, T/C: 112%
[10]
  viability, T/C: 110%
[11]
  viability, T/C: 119%
[12]
  viability, T/C: 120%
[13]
  viability, T/C: 105%
[14]
  viability, T/C: 102%
[15]
  viability, T/C: 117%
[16]
  viability, T/C: 130%
[17]
  viability, T/C: 113%
[18]
  viability, T/C: 107%
[19]
  viability, T/C: 103%
[20]
  viability, T/C: 104%
[21]
  viability, T/C: 111%
[22]
  viability, T/C: 109%
[23]
  viability, T/C: 121%
[24]
  viability, T/C: 94.8%
[25]
  viability, T/C: 109%
[26]
  viability, T/C: 103%
[27]
  viability, T/C: 128%
[28]
  viability, T/C: 111%
[29]
  viability, T/C: 113%
[30]
  viability, T/C: 95.3%

## CC1COCCN1c1cc(C2(S(C)(=N)=O)CC2)nc(-c2ccnc3[nH]ccc23)n1 (stereo not given) + NC1CC1c1ccc(-c2cccc(O)c2)cc1
Second compound 0.1 µM
  IC50: > 10 µM
Second compound 0.316 µM
  IC50: > 10 µM
Second compound 1 µM
  IC50: > 10 µM
Second compound 3.16 µM
  IC50: > 10 µM
Second compound 10 µM
  IC50: > 10 µM
[1]
  viability, T/C: 94.6%
[2]
  viability, T/C: 103%
[3]
  viability, T/C: 92.3%
[4]
  viability, T/C: 94.6%
[5]
  viability, T/C: 74.4%
[6]
  viability, T/C: 68.3%
[7]
  viability, T/C: 99.5%
[8]
  viability, T/C: 96.6%
[9]
  viability, T/C: 99.6%
[10]
  viability, T/C: 101%
[11]
  viability, T/C: 90.1%
[12]
  viability, T/C: 73.3%
[13]
  viability, T/C: 89.6%
[14]
  viability, T/C: 101%
[15]
  viability, T/C: 104%
[16]
  viability, T/C: 95.1%
[17]
  viability, T/C: 76.4%
[18]
  viability, T/C: 70.8%
[19]
  viability, T/C: 107%
[20]
  viability, T/C: 114%
[21]
  viability, T/C: 97.4%
[22]
  viability, T/C: 102%
[23]
  viability, T/C: 75.3%
[24]
  viability, T/C: 66.6%
[25]
  viability, T/C: 114%
[26]
  viability, T/C: 102%
[27]
  viability, T/C: 104%
[28]
  viability, T/C: 110%
[29]
  viability, T/C: 74.7%
[30]
  viability, T/C: 70.8%

## CCN(c1cc(-c2ccc(CN3CCOCC3)cc2)cc(C(=O)NCc2c(C)cc(C)[nH]c2=O)c1C)C1CCOCC1 + NC1CC1c1ccc(-c2cccc(O)c2)cc1
Second compound 0.1 µM
  IC50: > 3 µM
Second compound 0.316 µM
  IC50: > 3 µM
Second compound 1 µM
  IC50: > 3 µM
Second compound 3.16 µM
  IC50: > 3 µM
Second compound 10 µM
  IC50: > 3 µM
[31]
  viability, T/C: 104%
[32]
  viability, T/C: 110%
[33]
  viability, T/C: 95.6%
[34]
  viability, T/C: 94.2%
Second compound 0.1 µM, first compound 0.949 µM
  viability, T/C: 96.1%
Second compound 0.1 µM, first compound 3 µM
  viability, T/C: 102%
[35]
  viability, T/C: 111%
[36]
  viability, T/C: 98.3%
[37]
  viability, T/C: 102%
[38]
  viability, T/C: 96.3%
Second compound 0.316 µM, first compound 0.949 µM
  viability, T/C: 97.2%
Second compound 0.316 µM, first compound 3 µM
  viability, T/C: 111%
[39]
  viability, T/C: 104%
[40]
  viability, T/C: 107%
[41]
  viability, T/C: 103%
[42]
  viability, T/C: 102%
Second compound 1 µM, first compound 0.949 µM
  viability, T/C: 97.2%
Second compound 1 µM, first compound 3 µM
  viability, T/C: 104%
[43]
  viability, T/C: 96.6%
[44]
  viability, T/C: 104%
[45]
  viability, T/C: 92.8%
[46]
  viability, T/C: 99.7%
Second compound 3.16 µM, first compound 0.949 µM
  viability, T/C: 108%
Second compound 3.16 µM, first compound 3 µM
  viability, T/C: 102%
[47]
  viability, T/C: 101%
[48]
  viability, T/C: 100%
[49]
  viability, T/C: 106%
[50]
  viability, T/C: 101%
Second compound 10 µM, first compound 0.949 µM
  viability, T/C: 106%
Second compound 10 µM, first compound 3 µM
  viability, T/C: 104%

## Nc1ncn(C2CC(O)C(CO)S2)c(=O)n1 (stereo not given) + NC1CC1c1ccc(-c2cccc(O)c2)cc1
Second compound 0.1 µM
  IC50: > 0.3 µM
Second compound 0.316 µM
  IC50: > 0.3 µM
Second compound 1 µM
  IC50: > 0.3 µM
Second compound 3.16 µM
  IC50: > 0.3 µM
Second compound 10 µM
  IC50: > 0.3 µM
Second compound 0.1 µM, first compound 0.000949 µM
  viability, T/C: 102%
Second compound 0.1 µM, first compound 0.003 µM
  viability, T/C: 94.5%
[31]
  viability, T/C: 105%
[32]
  viability, T/C: 85.3%
[33]
  viability, T/C: 76.2%
[34]
  viability, T/C: 74.8%
Second compound 0.316 µM, first compound 0.000949 µM
  viability, T/C: 95.4%
Second compound 0.316 µM, first compound 0.003 µM
  viability, T/C: 102%
[35]
  viability, T/C: 90.6%
[36]
  viability, T/C: 83.3%
[37]
  viability, T/C: 74.3%
[38]
  viability, T/C: 71.1%
Second compound 1 µM, first compound 0.000949 µM
  viability, T/C: 94.2%
Second compound 1 µM, first compound 0.003 µM
  viability, T/C: 89.6%
[39]
  viability, T/C: 81.5%
[40]
  viability, T/C: 77.4%
[41]
  viability, T/C: 73.5%
[42]
  viability, T/C: 73.2%
Second compound 3.16 µM, first compound 0.000949 µM
  viability, T/C: 96.5%
Second compound 3.16 µM, first compound 0.003 µM
  viability, T/C: 85.8%
[43]
  viability, T/C: 83%
[44]
  viability, T/C: 78.5%
[45]
  viability, T/C: 75.1%
[46]
  viability, T/C: 78%
Second compound 10 µM, first compound 0.000949 µM
  viability, T/C: 92.3%
Second compound 10 µM, first compound 0.003 µM
  viability, T/C: 85.1%
[47]
  viability, T/C: 86.9%
[48]
  viability, T/C: 89%
[49]
  viability, T/C: 67.8%
[50]
  viability, T/C: 64%
